Source: patent US20080207621A1, “SOLUBLE EPOXIDE HYDROLASE INHIBITORS” (Arete Therapeutics, Inc., priority 2006, published 2008)

Columns and labels:
[1] = tested on: soluble epoxide hydrolase (sEH); experiment: Fluorescent assay for mouse and human soluble epoxide hydrolase (CMNPC substrate); format: biochemical; settings: substrate CMNPC 5 μM, 30° C.
Excerpt: Fluorescent Assay for Mouse and Human Soluble Epoxide Hydrolase Recombinant mouse sEH (MsEH) and human sEH (HsEH) were produced in a baculovirus expression system as previously reported. Grant et al., J. Biol. Chem., 268:17628-17633 (1993); Beetham et al., Arch. Biochem. Biophys., 305:197-201 (1993). The expressed proteins were purified from cell lysate by affinity chromatography. Wixtrom et al., Anal. Biochem., 169:71-80 (1988). Protein concentration was quantified using the Pierce BCA assay using bovine serum albumin as the calibrating standard. The preparations were at least 97% pure as judged by SDS-PAGE and scanning densitometry. They contained no detectable esterase or glutathione transferase activity which can interfere with the assay. The assay was also evaluated with similar results in crude cell lysates or homogenate of tissues. The IC50s for each inhibitor were determined according to the following procedure: […] Jones P. D. et. al.; Analytical Biochemistry 2005; 343: pp. 66-75) Bis/Tris HCl 25 mM pH 7.0 containing 0.1 mg/mL of BSA (buffer […] at 0.25 mM in DMSO. Mother solution of enzyme in buffer A (Mouse sEH at 6 μg/mL and Human sEH at 5 μg/mL). Inhibitor dissolved in DMSO at the appropriate concentration. In a black 96 well plate, fill all the wells with 150 μL of buffer A. Add 2 μL of DMSO in well A2 and A3, and then add 2 μL of inhibitor solution in A1 and A4 through A12. Add 150 μL of buffer A in row A, then mix several time and transfer 150 μL to row B. Repeat this operation up to row H. The 150 μL removed from row H is discarded. Add 20 μL of buffer A in column 1 and 2, then add 20 μL of enzyme solution to column 3 to 12. Incubate the plate for 5 minutes in the plate reader at 30° C. During incubation prepare the working solution of substrate by mixing 3.68 mL of buffer A (4×0.920 mL) with 266 μL (2×133 μL) of substrate solution). At t=0, add 30 μL of working substrate solution with multi-channel pipette labeled “Briggs 303” and start the reading ([S]final: 5 μM). Read with ex: 330 nm (20 nm) and em: 465 nm (20 nm) every 30 second for 10 minutes. The velocities are used to analyze and calculate the IC50s.

| SMILES | % Inhibition ([1]; Conc. 50 nM) [%] | further results |
| --- | --- | --- |
| CC(C)N1CCN(S(=O)(=O)c2cccc(NC(=O)Nc3ccc(C(F)(F)F)cc3)c2)CC1 [Compound 16, 1-[3-(4-Isopropyl-piperazine-1-sulfonyl)-phenyl]-3-(4-trifluoromethyl-phenyl)-urea] | 92 | – |
| O=C(Nc1ccc(C(F)(F)F)cc1)Nc1ccc(S(=O)(=O)Nc2ccc(Cl)cc2)cc1 [Compound 25, N-(4-Chloro-phenyl)-4-[3-(4-trifluoromethyl-phenyl)-ureido]-benzenesulfonamide] | 99 | – |
| NS(=O)(=O)c1ccc(NC(=O)NC23CC4CC(CC(C4)C2)C3)cc1 [Compound 1, 4-(3-Adamantan-1-yl-ureido)-benzenesulfonamide] | – | % Inhibition ([1]; Conc. 500 nM): 92% |
| NS(=O)(=O)c1cccc(NC(=O)Nc2ccc(C(F)(F)F)cc2)c1 [Compound 4, 3-[3-(4-Trifluoromethyl-phenyl)-ureido]-benzenesulfonamide] | 75 | – |
| O=C(Nc1ccc(C(F)(F)F)cc1)Nc1ccc(S(=O)(=O)NCCN2CCOCC2)cc1 [Compound 7, N-(2-Morpholin-4-yl-ethyl)-4-[3-(4-trifluoromethyl-phenyl)-ureido]-benzenesulfonamide] | 91 | – |
| CC(=O)NS(=O)(=O)c1cccc(NC(=O)Nc2ccc(C(F)(F)F)cc2)c1 [Compound 20, N-(3-(3-(4-(trifluoromethyl)phenyl)ureido)phenylsulfonyl)aceta-mide] | – | % Inhibition ([1]; Conc. 5000 nM): 85%; melting point: 115 to 121 °C |
| CNS(=O)(=O)c1cccc(NC(=O)Nc2ccc(C(F)(F)F)cc2)c1 [Compound 12, N-methyl-3-[3-(4-trifluoromethylphenyl)ureido]benzenesulfonamide] | 85 | melting point: 238 to 240 °C |
| O=C(Nc1ccc(C(F)(F)F)cc1)Nc1cccc(S(=O)(=O)NCCN2CCOCC2)c1 [Compound 8, N-(2-Morpholin-4-yl-ethyl)-3-[3-(4-trifluoromethyl-phenyl)-ureido]-benzenesulfonamide] | 94 | – |
| O=C(Nc1ccc(C(F)(F)F)cc1)Nc1ccc(S(=O)(=O)N2CCOCC2)cc1 [Compound 27, 1-[4-(Morpholine-4-sulfonyl)-phenyl]-3-(4-trifluoromethyl-phenyl)-urea] | 95 | – |
| O=C(O)CCCNS(=O)(=O)c1ccc(NC(=O)Nc2ccc(C(F)(F)F)cc2)cc1 [Compound 23, 4-{4-[3-(4-Trifluoromethyl-phenyl)-ureido]-benzenesulfonylamino}-butyric acid] | 80 | melting point: 172 to 175 °C |
| O=C(Nc1ccc(C(F)(F)F)cc1)Nc1cccc(S(=O)(=O)N2CCOCC2)c1 [Compound 28, 1-[3-(Morpholine-4-sulfonyl)-phenyl]-3-(4-trifluoromethyl-phenyl)-urea] | 93 | – |
| NS(=O)(=O)c1cccc(NC(=O)NC23CC4CC(CC(C4)C2)C3)c1 [Compound 2, 3-(3-Adamantan-1-yl-ureido)-benzenesulfonamide] | – | % Inhibition ([1]; Conc. 500 nM): 94% |
| CC(C)N1CCN(S(=O)(=O)c2ccc(NC(=O)Nc3ccc(C(F)(F)F)cc3)cc2)CC1 [Compound 15, 1-[4-(4-Isopropyl-piperazine-1-sulfonyl)-phenyl]-3-(4-trifluoromethyl-phenyl)-urea] | 90 | – |
| O=C(Nc1ccc(C(F)(F)F)cc1)Nc1cccc(S(=O)(=O)Nc2ccc(Cl)cc2)c1 [Compound 26, N-(4-Chloro-phenyl)-3-[3-(4-trifluoromethyl-phenyl)-ureido]-benzenesulfonamide] | 99 | melting point: 196 to 198 °C |
